Laboratory results published in patent publication US20230278983A1, “INDOLE DERIVATIVES AND USES THEREOF FOR TREATING A CANCER” (Universite Claude Bernard Lyon 1, priority 2020, published 2023).

Each molecule was assayed against CK2 (Homo sapiens (Human), UniProt P68400) (assay: Radiometric CK2 kinase assay). Details: not given.
Type: biochemical

Chain of CK2 (P68400 whole entry): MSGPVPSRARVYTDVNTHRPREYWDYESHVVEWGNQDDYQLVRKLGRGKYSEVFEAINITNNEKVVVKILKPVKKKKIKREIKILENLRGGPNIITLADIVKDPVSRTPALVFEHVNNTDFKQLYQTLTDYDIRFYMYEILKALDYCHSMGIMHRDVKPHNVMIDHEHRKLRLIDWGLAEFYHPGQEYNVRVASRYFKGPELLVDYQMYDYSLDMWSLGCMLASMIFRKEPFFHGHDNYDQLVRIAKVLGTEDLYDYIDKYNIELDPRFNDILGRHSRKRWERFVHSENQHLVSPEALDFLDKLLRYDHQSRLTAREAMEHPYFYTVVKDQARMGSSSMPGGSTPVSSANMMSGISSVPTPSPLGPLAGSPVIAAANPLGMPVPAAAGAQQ

Q: Which results are given for `CC(C)COC(=O)c1[nH]c2ccc(F)cc2c1-c1cn(CC2CCN(CCNS(=O)(=O)c3ccc(C(C)C)cc3)CC2)nn1` [AB603, Isobutyl 5-fluoro-3-(1-((1-(2-((4-isopropylphenyl)sulfonamido)ethyl)piperidin-4-yl)methyl)-1H-1,2,3-triazol-4-yl)-1H-indole-2-carboxylate]?
A: Competition with peptide substrate: not competitive with the peptide substrate; IC50: 0.15 µM

Same assay, conditions: CK2a compared with CK2 holoenzyme

Q: With `CC(C)COC(=O)c1[nH]c2ccc(F)cc2c1-c1cn(CC2CCN(CCNS(=O)(=O)c3ccc(C(C)C)cc3)CC2)nn1` [AB603, Isobutyl 5-fluoro-3-(1-((1-(2-((4-isopropylphenyl)sulfonamido)ethyl)piperidin-4-yl)methyl)-1H-1,2,3-triazol-4-yl)-1H-indole-2-carboxylate] as the molecule, how does the “Inhibition of CK2a versus CK2 holoenzyme” value read?
A: not inhibited to the same extent

Same assay, conditions: compound at 1 μM; ATP 10 μM

Q: How did the inhibition at 1 µM turn out when `CCc1ccc(S(=O)(=O)NCCN2CCC(Cn3cc(-c4c(C(=O)NCC(C)C)[nH]c5ccc(F)cc45)nn3)CC2)cc1` [AB651, 3-(1-((1-(2-((4-Ethylphenyl)sulfonamido)ethyl)piperidin-4-yl)methyl)-111-1,2,3-triazol-4-yl)-5-fluoro-N-isobutyl-1H-indole-2-carboxamide] was run?
A: 5%

Q: `CC(C)CNC(=O)c1[nH]c2ccc(F)cc2c1-c1cn(CC2CCN(CCNS(=O)(=O)c3ccc(C(C)C)cc3)CC2)nn1` [AB652, 5-Fluoro-N-isobutyl-3-(1-((1-(2-((4-isopropylphenyl)sulfonamido)ethyl)piperidin-4-yl)methyl)-1H-1,2,3-triazol-4-yl)-1H-indole-2-carboxamide] was tested. Which inhibition at 1 µM did it give?
A: 4%

Q: Which inhibition at 1 µM does the source give for `CCc1ccc(S(=O)(=O)NCCN2CCC(Cn3cc(-c4c(C(=O)OCCC(C)C)[nH]c5ccc(F)cc45)nn3)CC2)cc1` [AB663, Isopentyl 3-(1-((1-(2-((4-ethylphenyl)sulfonamido)ethyl)piperidin-4-yl)methyl)-1H-1,2,3-triazol-4-yl)-5-fluoro-1H-indole-2-carboxylate] here?
A: 11%

Q: How did the inhibition at 1 µM turn out when `CC(C)CCOC(=O)c1[nH]c2ccc(F)cc2c1-c1cn(CC2CCN(CCNS(=O)(=O)c3ccc(C(C)C)cc3)CC2)nn1` [AB664, Isopentyl 5-fluoro-3-(1-((1-(2-((4-isopropylphenyl)sulfonamido)ethyl)piperidin-4-yl)methyl)-1H-1,2,3-triazol-4-yl)-1H-indole-2-carboxylate] was run?
A: 15%

Q: For `CC(C)CCOC(=O)c1[nH]c2ccc(F)cc2c1-c1cn(CC2CCN(CCNS(=O)(=O)c3ccc(CC(C)C)cc3)CC2)nn1` [AB669, Isopentyl 5-fluoro-3-(1-((1-(2-((4-isobutylphenyl)sulfonamido)ethyl)piperidin-4-yl)methyl)-1H-1,2,3-triazol-4-yl)-1H-indole-2-carboxylate], which inhibition at 1 µM is on record?
A: 32%

Q: How did the inhibition at 1 µM turn out when `CCc1ccc(S(=O)(=O)NCCN2CCC(Cn3cc(-c4c(C(=O)NCCC(C)C)[nH]c5ccc(F)cc45)nn3)CC2)cc1` [AB670, 3-(1-((1-(2-((4-Ethylphenyl)sulfonamido)ethyl)piperidin-4-yl)methyl)-1H-1,2,3-triazol-4-yl)-5-fluoro-N-isopentyl-1H-indole-2-carboxamide] was run?
A: 14%

Q: With `CC(C)CCNC(=O)c1[nH]c2ccc(F)cc2c1-c1cn(CC2CCN(CCNS(=O)(=O)c3ccc(C(C)C)cc3)CC2)nn1` [AB671, 5-Fluoro-N-isopentyl-3-(1-((1-(2-((4-isopropylphenyl)sulfonamido)ethyl)piperidin-4-yl)methyl)-1H-1,2,3-triazol-4-yl)-1H-indole-2-carboxamide] as the molecule, how does the inhibition at 1 µM read?
A: 18%

Q: How did the inhibition at 1 µM turn out when `COCc1ccccc1-c1ccc(CN2CCC(Cn3cc(-c4c(C(=O)OCC(C)C)[nH]c5ccc(F)cc45)nn3)CC2)cc1Cl` [AB680, Isobutyl 3-(1-((1-((2-chloro-2′-(methoxymethyl)-[1,1′-biphenyl]-4-yl)methyl)piperidin-4-yl)methyl)-1H-1,2,3-triazol-4-yl)-5-fluoro-1H-indole-2-carboxylate] was run?
A: 11%

Q: Which inhibition at 1 µM does the source give for `COCc1ccccc1-c1ccc(C(=O)N2CCC(Cn3cc(-c4c(C(=O)OCC(C)C)[nH]c5ccc(F)cc45)nn3)CC2)cc1Cl` [AB681, Isobutyl 3-(1-((1-(2-chloro-2′-(methoxymethyl)-[1,1′-biphenyl]-4-carbonyl)piperidin-4-yl)methyl)-1H-1,2,3-triazol-4-yl)-5-fluoro-1H-indole-2-carboxylate] here?
A: 18%

Q: For `COc1ccccc1-c1ccc(CN2CCC(Cn3cc(-c4c(C(=O)OCC(C)C)[nH]c5ccc(F)cc45)nn3)CC2)cc1Cl` [AB689, Isobutyl 3-(1-((1-((2-chloro-2′-methoxy-[1,1′-biphenyl]-4-yl)methyl)piperidin-4-yl)methyl)-1H-1,2,3-triazol-4-yl)-5-fluoro-1H-indole-2-carboxylate], which inhibition at 1 µM is on record?
A: 6%

Q: With `CC(C)COC(=O)c1[nH]c2ccc(F)cc2c1-c1cn(CC2CCN(Cc3ccc(-c4cccc5[nH]ccc45)c(Cl)c3)CC2)nn1` [AB690, Isobutyl 3-(1-((1-(3-chloro-4-(1H-indol-4-yl)benzyl)piperidin-4-yl)methyl)-1H-1,2,3-triazol-4-yl)-5-fluoro-1H-indole-2-carboxylate] as the molecule, how does the inhibition at 1 µM read?
A: 31%

Q: `CC(C)COC(=O)c1[nH]c2ccc(F)cc2c1-c1cn(CC2CCN(Cc3ccc(Oc4ccccc4)c(Cl)c3)CC2)nn1` [AB691, Isobutyl 3-(1-((1-(3-chloro-4-phenoxybenzyl)piperidin-4-yl)methyl)-1H-1,2,3-triazol-4-yl)-5-fluoro-1H-indole-2-carboxylate] was tested. Which inhibition at 1 µM did it give?
A: 3%

Q: `COc1ccc(C)cc1-c1ccc(CN2CCC(Cn3cc(-c4c(C(=O)OCC(C)C)[nH]c5ccc(F)cc45)nn3)CC2)cc1Cl` [AB692] was tested. Which inhibition at 1 µM did it give?
A: 5%

Q: `CC(C)COC(=O)c1[nH]c2ccc(F)cc2c1-c1cn(CC2CCN(Cc3ccc(Oc4ccccc4)c(C(C)C)c3)CC2)nn1` [AB697, Isobutyl 5-fluoro-3-(1-((1-(3-isopropyl-4-phenoxybenzyl)piperidin-4-yl)methyl)-1H-1,2,3-triazol-4-yl)-1H-indole-2-carboxylate] was tested. Which inhibition at 1 µM did it give?
A: 16%

Q: With `CC(C)COC(=O)c1[nH]c2ccc(F)cc2c1-c1cn(CC2CCN(Cc3ccc(-c4cccc5[nH]ccc45)c(C(C)C)c3)CC2)nn1` [AB703, Isobutyl 3-(1-((1-(4-(1H-indol-4-yl)-3-isopropylbenzyl)piperidin-4-yl)methyl)-1H-1,2,3-triazol-4-yl)-5-fluoro-1H-indole-2-carboxylate] as the molecule, how does the inhibition at 1 µM read?
A: 8%

Q: How did the inhibition at 1 µM turn out when `COCc1ccccc1-c1ccc(CN2CCC(Cn3cc(-c4c(C(=O)OCC(C)C)[nH]c5ccc(F)cc45)nn3)CC2)cc1C(C)C` [AB704] was run?
A: 21%

Q: How did the inhibition at 1 µM turn out when `CC(C)COC(=O)c1[nH]c2ccc(F)cc2c1-c1cn(CC2CCN(Cc3ccc(Oc4cccc(C(C)C)c4)c(C(C)C)c3)CC2)nn1` [AB713, Isobutyl 5-fluoro-3-(1-((1-(3-isopropyl-4-(3-isopropylphenoxy)benzyl)piperidin-4-yl)methyl)-1H-1,2,3-triazol-4-yl)-1H-indole-2-carboxylate] was run?
A: 5%

Q: Which inhibition at 1 µM does the source give for `CC(C)COC(=O)c1[nH]c2ccc(F)cc2c1-c1cn(CC2CCN(Cc3ccc(Oc4ccc5c(c4)CCO5)c(C(C)C)c3)CC2)nn1` [AB717, Isobutyl 3-(1-((1-(4-((2,3-dihydrobenzofuran-5-yl)oxy)-3-isopropylbenzyl)piperidin-4-yl)methyl)-1H-1,2,3-triazol-4-yl)-5-fluoro-1H-indole-2-carboxylate] here?
A: 2%

Q: Which inhibition at 1 µM does the source give for `CC(=O)c1cccc(Oc2ccc(CN3CCC(Cn4cc(-c5c(C(=O)OCC(C)C)[nH]c6ccc(F)cc56)nn4)CC3)cc2C(C)C)c1` [AB718, Isobutyl 3-(1-((1-(4-(3-acetylphenoxy)-3-isopropylbenzyl)piperidin-4-yl)methyl)-1H-1,2,3-triazol-4-yl)-5-fluoro-1H-indole-2-carboxylate] here?
A: 5%

Q: `CC(C)COC(=O)c1[nH]c2ccc(F)cc2c1-c1cn(CC2CCN(Cc3ccc(-c4ccc5c(c4)CCO5)c(Cl)c3)CC2)nn1` [AB731, Isobutyl 3-(1-((1-(3-chloro-4-(2,3-dihydrobenzofuran-5-yl)benzyl)piperidin-4-yl)methyl)-1H-1,2,3-triazol-4-yl)-5-fluoro-1H-indole-2-carboxylate] was tested. Which inhibition at 1 µM did it give?
A: 5%

Q: How did the inhibition at 1 µM turn out when `CC(=O)c1cccc(-c2ccc(CN3CCC(Cn4cc(-c5c(C(=O)OCC(C)C)[nH]c6ccc(F)cc56)nn4)CC3)cc2Cl)c1` [AB739, Isobutyl 3-(1-((1-((3′-acetyl-2-chloro-[1,1′-biphenyl]-4-yl)methyl)piperidin-4-yl)methyl)-1H-1,2,3-triazol-4-yl)-5-fluoro-1H-indole-2-carboxylate] was run?
A: 7%

Q: With `CC(C)CCOc1ccccc1-c1ccc(C(=O)N2CCC(Cn3cc(-c4c(C(=O)OCC(C)C)[nH]c5ccc(F)cc45)nn3)CC2)cc1Cl` [AB743, Isobutyl 3-(1-((1-(2-chloro-2′-(isopentyloxy)-[1,1′-biphenyl]-4-carbonyl)piperidin-4-yl)methyl)-1H-1,2,3-triazol-4-yl)-5-fluoro-1H-indole-2-carboxylate] as the molecule, how does the inhibition at 1 µM read?
A: 9%

Q: `CC(C)CCOc1ccc(CN2CCC(Cn3cc(-c4c(C(=O)OCC(C)C)[nH]c5ccc(F)cc45)nn3)CC2)cc1Cl` [AB746, Isobutyl 3-(1-((1-(3-chloro-4-(isopentyloxy)benzyl)piperidin-4-yl)methyl)-1H-1,2,3-triazol-4-yl)-5-fluoro-1H-indole-2-carboxylate] was tested. Which inhibition at 1 µM did it give?
A: 15%

Q: `CC(C)COC(=O)c1[nH]c2ccc(F)cc2c1-c1cn(CC2CCN(Cc3ccc(-c4ccc5[nH]ccc5c4)c(Cl)c3)CC2)nn1` [AB753, Isobutyl 3-(1-((1-(3-chloro-4-(1H-indol-5-yl)benzyl)piperidin-4-yl)methyl)-1H-1,2,3-triazol-4-yl)-5-fluoro-1H-indole-2-carboxylate] was tested. Which inhibition at 1 µM did it give?
A: 18%

Q: How did the inhibition at 1 µM turn out when `CC(C)COC(=O)c1[nH]c2ccc(F)cc2c1-c1cn(CC2CCN(S(=O)(=O)N3CCN(Cc4ccccc4)CC3)CC2)nn1` [AB755] was run?
A: 56%

Q: Which inhibition at 1 µM does the source give for `CC(C)COC(=O)c1[nH]c2ccc(F)cc2c1-c1cn(CC2CCN(C(=O)c3ccc(-c4cccc5[nH]ccc45)c(C(F)(F)F)c3)CC2)nn1` [AB756, Isobutyl 3-(1-((1-(4-(1H-indol-4-yl)-3-(trifluoromethyl)benzoyl)piperidin-4-yl)methyl)-1H-1,2,3-triazol-4-yl)-5-fluoro-1H-indole-2-carboxylate] here?
A: 19%

Same assay, conditions: inhibition of CK2 activity; ATP 10 μM

Q: How did the IC50 turn out when `CCc1ccc(S(=O)(=O)NCCN2CCC(Cn3cc(-c4c(C(=O)OCCN)[nH]c5ccc(F)cc45)nn3)CC2)cc1` [AB614, 2-Aminoethyl 3-(1-((1-(2-((4-ethylphenyl)sulfonamido)ethyl)piperidin-4-yl)methyl)-1H-1,2,3-triazol-4-yl)-5-fluoro-1H-indole-2-carboxylate] was run?
A: 3.24 µM
